Structures are written as SMILES.

Type in all cases: in vivo
Test [1] deals with middle cerebral artery occlusion (MCAO) rats. The test is described as follows: HE staining, histopathologic changes in brain cortex of MCAO rats. The following applies: 24 h after treatment, POC 4.5 mg/kg iv, compared with the model group, n = 3. The method, then: Male Sprague Dawley (SD) rats weighing among 220 g–230 g (Anhui Medicine University, Hefei, China; certificate number: SCXK20190,003) were housed under ad libitum access to food and water with a standardized light-dark cycle condition (25 ± 2°C, 12–hour light/dark cycle). All the experimental protocols were performed in accordance with the Institutional Animal Care and Use Committee of Anhui University of Chinese Medicine (Animal ethics number: AHUCM–rats–2019001). We used the minimal number of study animals (n = 6 rats in each group for different experiments). The rats were fastened upon the operating table in a supine position after being anesthetized with 2% pelltobarbitalum natricum (50 mg/kg). After disinfection of the skin within close proximity of the operative region, the right common carotid artery (CCA), external carotid artery (ECA) and internal carotid artery (ICA) were exposed with blunt dissection. The CCA was temporarily ligated and the ECA were permanently ligated ([Liu et al., 2016]). A nylon monofilament surgical thread was introduced into the ICA to block the MCA when the blunted distal end met resistance. After 2 h of occlusion, reperfusion was accomplished to restore blood supply to the MCA area by removing the filament ([Li et al., 2009]; [Zhai et al., 2017]). […] Rats were split randomly into five groups, including the sham, model, paeonol, OS and POC group. […]

The test system of the next test is TXA2. The test can be described thus: ELISA assay for TXA2 in brain tissue and blood of MCAO rats. As to conditions: paeonol and OS 3 mg/kg, POC 4.5 mg/kg iv, n = 6. The method, then:
(§1) Male Sprague Dawley (SD) rats weighing among 220 g-230 g (Anhui Medicine University, Hefei, China; certificate number: SCXK20190,003) were housed under ad libitum access to food and water with a standardized light-dark cycle condition (25 ± 2°C, 12-hour light/dark cycle). All the experimental protocols were performed in accordance with the Institutional Animal Care and Use Committee of Anhui University of Chinese Medicine (Animal ethics number: AHUCM-rats-2019001). We used the minimal number of study animals (n = 6 rats in each group for different experiments). The rats were fastened upon the operating table in a supine position after being anesthetized with 2% pelltobarbitalum natricum (50 mg/kg). After disinfection of the skin within close proximity of the operative region, the right common carotid artery (CCA), external carotid artery (ECA) and internal carotid artery (ICA) were exposed with blunt dissection. The CCA was temporarily ligated and the ECA were permanently ligated ([Liu et al., 2016]). […] According to the manufacturer's instructions, the levels of inflammatory cytokines (IL - 6, IL-1β, TNF-α; R&D Systems, Minneapolis, MN, United States) and TXA2 (Wuhan ColorfulGene Biological Technology Co., LTD) were detected using the commercial ELISA kits. The resultant colored products were measured the absorbance at 450 nm. […]

In a further test the test system is IL–6, IL–1β, TNF–α. The test can be described thus: ELISA assay for inflammatory cytokines in brain tissue of MCAO rats. As to conditions: versus model group (p < 0.001), paeonol and OS 3 mg/kg, POC 4.5 mg/kg iv, n = 6. The procedure: as §1

For `COc1ccc(C(C)=O)c(OC(=O)C=Cc2ccc(Cn3ccnc3)cc2)c1` [POC, paeonol-ozagrel conjugate], in test [1], the “histopathologic changes in brain cortex (HE)” value is “only marginal neuronal cells damage”. Moreover, in the test with TXA2 (blood/plasma), the “levels of TXA2 in blood (plasma)” value is on record as “decreasing levels”. Moreover, the “levels of TXA2 in brain” value with TXA2 (brain tissue) is reported as “decreasing levels”. In addition, the “release of inflammatory cytokines (IL–6, IL–1β, TNF–α) in brain tissue” value with IL–6, IL–1β, TNF–α is reported as “can inhibit the expression of three markers of inflammatory cytokines”.

Source of the values: article PMC7883289, “Synthesis of Paeonol-Ozagrel Conjugate: Structure Characterization and In Vivo Anti-Ischemic Stroke potential” (Frontiers in Pharmacology, 2021).
